Measurements reported in PMC12153356, “An antisense oligomer conjugate with unpredicted bactericidal activity against Fusobacterium nucleatum” (mBio, 2025).
Entries after “also recorded” stand apart in the source; their conditions may differ.

What was measured:
[1] = system: F. nucleatum subsp. nucleatum ATCC 23726 (FNN23); assay: MIC determination and growth inhibition assay (broth microdilution, OD600 over time); assay type: cell-based, Fusobacterium nucleatum subsp. nucleatum ATCC 23726; settings: for Growth inhibition of FNN23: 10 µM compound, 1 × 10^5 CFU/mL, growth inhibition = no visible growth (OD600 <0.01) after 120 h
Protocol: To test CPP-PNA conjugates for growth inhibition, we diluted mid-exponential phase cultures of FNN23 to 1 × 10^5 colony forming units (CFUs) per milliliter in Mueller-Hinton Broth (MHB) and incubated the diluted bacteria with 10 µM of either (KFF)3K- or (RXR)4XB- conjugated PNAs targeting acpP, ftsZ or gyrA. Growth was monitored over time by OD600 measurements, with growth inhibition defined as no visible growth (OD600 <0.01) after 120 h. […] Based on these findings, we conclude that CPP-PNAs targeting fusobacterial mRNAs are not effective in antisense inhibition.
(§1) The following fusobacterial strains were used in this study: Fusobacterium nucleatum subsp. nucleatum ATCC 23726 (FNN23) acquired from the American Type Culture Collection (ATCC), F. nucleatum subsp. nucleatum ATCC 25586 (FNN25), F. nucleatum subsp. vincentii ATCC 49256 (FNV), and F. nucleatum subsp. polymorphum ATCC 10953 (FNP) acquired from the German Collection of Microorganisms and Cell Culture (DSMZ), F. nucleatum subsp. animalis 7_1 (FNA) and F. periodonticum 2_1_31 (FPE) both received as a kind gift from E. Allen-Vercoe (University of Guelph, Canada). All strains were routinely grown at 37°C in 80:10:10 (N2:H2:CO2) anaerobic conditions on 2% agar supplemented BHI plates (BHI, 1% [wt:vol] dried yeast extract, 1% [vol:vol] 50% sterile-filtered glucose solution, 5 µg/mL of hemin; 1% [vol:vol] fetal bovine serum) from frozen 20% glycerol stocks kept at −80°C. For liquid growth, the strains were cultured in Columbia broth (ColB; BD Difco). Precultures were prepared 24 h before inoculating the working culture at a 1:50 dilution in fresh ColB until OD600 0.5 was reached. Cultures were then diluted in non-cation adjusted Mueller-Hinton Broth (MHB, BD Difco) to the desired CFU/mL number. P. gingivalis (DSM 20709) was purchased from DSMZ and grown at 37°C in anaerobic conditions as mentioned above on 2% agar supplemented BHI+ plates (BHI, 1% [wt:vol] dried yeast extract, 1% [vol:vol] 50% sterile filtered glucose solution, 5 µg/ml of hemin; 10% [vol:vol] fetal bovine serum; and 1 µg/mL vitamin K3) for 4 days. For liquid growth, P. gingivalis was cultured in BHI+ medium (BHI, BD Difco supplemented with 1% [vol:vol] 50% sterile-filtered glucose solution, 5 µg/mL of hemin; 1% [vol:vol] fetal bovine serum, and 1 µg/mL vitamin K3). Precultures were prepared 24 h before inoculating the working culture at a 1:20 dilution in BHI+ until OD600 of 0.5 was reached. All plates, media, buffers, and reagents were brought into the anaerobic chamber the day before usage to ensure full oxygen depletion.
To determine the MIC value, broth microdilutions were performed according to the standard protocol with some modifications ([119]). An overnight bacterial culture was diluted in a fresh ColB medium and grown to OD600 0.5 (mid-exponential phase). […] To determine the growth inhibition of P. gingivalis, an o.n. culture grown in BHI+ was diluted 1:1,500 in MHB to obtain 1 × 10^5 CFU/mL. E. coli K12, E. coli Nissle 1917, and S. enterica o.n. cultures grown in MHB were diluted 1:1,800 in fresh MHB to obtain 1 × 10^5 CFU/mL. In total, 190 µL of diluted bacterial cultures were pipetted into a transparent 96-well plate (Nunc, Thermo Fischer Scientific) together with 10 µL of respective 20× CPP or CPP-PNA stock or water as control. Bacterial growth was monitored by measuring OD600 every 20 min with constant shaking in a plate reader (Biotek) under the normal atmospheric environment or positioned in the anaerobic chamber with double orbital shaking every 20 min prior to each measurement with 237 cpm at 37°C for 120 h.

[2] = system: F. nucleatum subsp. animalis 7_1 (FNA); assay: Growth inhibition assay; assay type: cell-based, Fusobacterium nucleatum subsp. animalis 7_1; settings: 10 µM, MHB, 1 × 10^5 CFU/mL input, three replicates
Text: as §1, with “For liquid growth, P. gingivalis was cultured in BHI+ medium (BHI, BD Difco supplemented with 1% [vol:vol] 50% sterile-filtered glucose solution, 5 µg/mL of hemin; 1% [vol:vol] fetal bovine serum, and 1 µg/mL vitamin K3). Precultures were prepared 24 h before inoculating the working culture at a 1:20 dilution in BHI+ until OD600 of 0.5 was reached. All plates, media, buffers, and reagents were brought into the anaerobic chamber the day before usage to ensure full oxygen depletion.” left out
To determine the MIC value, broth microdilutions were performed according to the standard protocol with some modifications ([119]). […] Bacterial growth was monitored by measuring OD600 every 20 min with constant shaking in a plate reader (Biotek) under the normal atmospheric environment or positioned in the anaerobic chamber with double orbital shaking every 20 min prior to each measurement with 237 cpm at 37°C for 120 h.

[3] = system: P. gingivalis (DSM 20709); assay: Growth inhibition assay; assay type: cell-based, Porphyromonas gingivalis; settings: 10 µM, MHB, 1 × 10^5 CFU/mL input, anaerobic, OD600 for 144 h
Text: The following fusobacterial strains were used in this study: Fusobacterium nucleatum subsp. nucleatum ATCC 23726 (FNN23) acquired from the American Type Culture Collection (ATCC), F. nucleatum subsp. nucleatum ATCC 25586 (FNN25), F. nucleatum subsp. vincentii ATCC 49256 (FNV), and F. nucleatum subsp. polymorphum ATCC 10953 (FNP) acquired from the German Collection of Microorganisms and Cell Culture (DSMZ), F. nucleatum subsp. animalis 7_1 (FNA) and F. periodonticum 2_1_31 (FPE) both received as a kind gift from E. Allen-Vercoe (University of Guelph, Canada). All strains were routinely grown at 37°C in 80:10:10 (N2:H2:CO2) anaerobic conditions on 2% agar supplemented BHI plates (BHI, 1% [wt:vol] dried yeast extract, 1% [vol:vol] 50% sterile-filtered glucose solution, 5 µg/mL of hemin; 1% [vol:vol] fetal bovine serum) from frozen 20% glycerol stocks kept at −80°C. For liquid growth, the strains were cultured in Columbia broth (ColB; BD Difco). Precultures were prepared 24 h before inoculating the working culture at a 1:50 dilution in fresh ColB until OD600 0.5 was reached. […]
To determine the MIC value, broth microdilutions were performed according to the standard protocol with some modifications ([119]). […] […] a plate reader (Biotek) under the normal atmospheric environment or positioned in the anaerobic chamber with double orbital […]

| Substance | Growth inhibition of FNN23 ([1]; MHB) | Growth inhibition of FNA [2] | Growth inhibition of P. gingivalis [3] | Effect on FNN23 at higher inoculum ([1]; 10 µM, 10^7 CFU/mL in MHB (Fig. S3B)) | Growth inhibition of FNN23 by further batches of FUS79 ([1]; batch reordered from original vendor and in-house synthesis, MHB, 1 x 10^5 CFU per ml (Fig. S2A and B)) | MIC of FUS79 ([1]; dilution series, FNN23 in MHB at 1 × 10^5 CFU/mL input, anaerobic, 37°C, OD600 <0.01, three replicates (Fig. 3A)) [µM] | Effect on FNN23 in brain heart infusion (BHI) ([1]; peptide-rich medium BHI, 1 x 10^5 CFU per ml input (Fig. S3C)) | Effect on FNN23 in Columbia broth (ColB) ([1]; peptide-rich medium ColB, 1 x 10^5 CFU per ml input (Fig. S3C)) |
| --- | --- | --- | --- | --- | --- | --- | --- | --- |
| RXRRXRRXRRXRXB [PNAscr] | no impact on growth | growth retardation compared with the water control | no growth inhibition |  |  |  |  |  |
| (RXR)4XB-GACATAATTGT [FUS79, non-targeting (RXR)4XB-PNA 11-mer control, (RXR)4XB-…] | completely inhibited growth; also recorded: inhibited the growth | inhibited the growth | no growth inhibition | no longer bactericidal | Both batches confirmed the FUS79-mediated growth inhibition | 10 | no effect | no effect |
